Target: Envelope glycoprotein gp160 (Human immunodeficiency virus 1, UniProt Q6QLK5)
Assay: blockers of envelope-mediated cell fusion – luminescence reporter, SAR follow-up (AID 435029)

Sequence of Envelope glycoprotein gp160 (Q6QLK5 whole entry, the tested form may be a part): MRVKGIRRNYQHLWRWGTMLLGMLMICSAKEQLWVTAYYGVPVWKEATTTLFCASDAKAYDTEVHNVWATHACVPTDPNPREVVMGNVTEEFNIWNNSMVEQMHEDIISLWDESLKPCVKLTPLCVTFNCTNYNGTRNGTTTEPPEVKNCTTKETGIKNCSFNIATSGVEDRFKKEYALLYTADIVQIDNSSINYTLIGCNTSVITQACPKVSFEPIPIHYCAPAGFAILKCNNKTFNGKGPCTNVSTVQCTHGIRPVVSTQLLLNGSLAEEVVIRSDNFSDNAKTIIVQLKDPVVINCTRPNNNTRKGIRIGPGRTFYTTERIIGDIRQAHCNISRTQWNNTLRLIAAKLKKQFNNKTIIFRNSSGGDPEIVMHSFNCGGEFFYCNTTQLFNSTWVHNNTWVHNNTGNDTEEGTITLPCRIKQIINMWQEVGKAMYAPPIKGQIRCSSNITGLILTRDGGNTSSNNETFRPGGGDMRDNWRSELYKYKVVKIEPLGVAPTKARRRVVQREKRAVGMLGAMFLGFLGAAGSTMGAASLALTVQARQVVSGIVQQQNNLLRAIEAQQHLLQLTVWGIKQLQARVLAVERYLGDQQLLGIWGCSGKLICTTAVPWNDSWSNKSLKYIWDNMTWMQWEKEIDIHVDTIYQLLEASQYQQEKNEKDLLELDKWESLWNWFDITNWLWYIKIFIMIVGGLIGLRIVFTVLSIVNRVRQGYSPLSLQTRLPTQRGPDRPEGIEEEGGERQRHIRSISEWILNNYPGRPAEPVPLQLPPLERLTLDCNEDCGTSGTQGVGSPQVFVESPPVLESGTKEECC

Structure (SMILES) | IC50
COc1ccc(C(=O)Oc2ccc(CN=Nc3ccc(Cl)c(C(=O)O)c3)cc2OC)cc1 [SMR000589907] | 13 µM
CCC(C)(C)C1CCc2c(sc(NC(=O)c3ccccc3C(=O)O)c2C#N)C1 (centres undefined) [2-[[3-cyano-6-(2-methylbutan-2-yl)-4,5,6,7-tetrahydro-1-benzothiophen-2-yl]carbamoyl]benzoic acid] | 7.3 µM
COc1cc(CN=Nc2ccc(Cl)c(C(=O)O)c2)ccc1OC(=O)c1ccc(F)cc1 [2-chloro-5-[2-[[4-[(4-fluorophenyl)-oxomethoxy]-3-methoxyphenyl]methylidene]hydrazinyl]benzoic acid] | 30 µM
CCOc1cc(/C=C2\SC(=O)N(CC(=O)Nc3ccccc3F)C2=O)cc([N+](=O)[O-])c1O | 8.3 µM
O=c1/c(=C/c2cc([N+](=O)[O-])cc([N+](=O)[O-])c2O)sc2nc3ccccc3n12 [2-[(2-hydroxy-3,5-dinitrophenyl)methylidene]-1-thiazolo[3,2-a]benzimidazolone] | 8.6 µM
CC(C)(C)c1cc(-c2cs/c(=N\c3ccccc3)n2Cc2ccc(C(=O)O)cc2)cc(C(C)(C)C)c1O [4-[[4-(3,5-ditert-butyl-4-oxidanyl-phenyl)-2-phenylazanyl-1,3-thiazol-3-ium-3-yl]methyl]benzoic acid;bromide] | 3.5 µM
Cc1ccc(S(=O)(=O)Oc2ccc(/C=C3/C(=N)N4C(=NC3=O)SN=C4S(C)(=O)=O)cc2)cc1 [4-methylbenzenesulfonic acid [4-[(Z)-(5-imino-3-methylsulfonyl-7-oxo-[1,2,4]thiadiazolo[4,5-a]pyrimidin-6-ylidene)methyl]phenyl] ester] | 8 µM
CS(=O)(=O)C1=NSC2=NC(=O)/C(=C\c3ccc(OS(=O)(=O)c4ccccc4)cc3)C(=N)N21 | 12.7 µM
CS(=O)(=O)C1=NSC2=NC(=O)/C(=C\c3cccn3-c3ccc(Cl)cc3)C(=N)N21 | 8.8 µM
Cc1c(Cl)cccc1NS(=O)(=O)c1ccc2c(c1)C1C=CCC1C(c1ccc(C(=O)O)cc1)N2 (centres undefined) | 5.4 µM
CC(C)NC(=O)c1sc(=S)n2c1[nH]c(=O)c1ccc(C(=O)NCCc3ccc(Cl)cc3)cc12 [N8-[2-(4-chlorophenyl)ethyl]-5-oxidanylidene-N3-propan-2-yl-1-sulfanylidene-4H-[1,3]thiazolo[3,4-a]quinazoline-3,8-dicarboxamide] | 11.1 µM
COc1cc(/C=C2\SC(=O)N(c3ccccc3Cl)C2=O)cc([N+](=O)[O-])c1O | 7.5 µM
O=C(O)c1cc(N=NCc2ccc(-c3ccccc3)cc2)ccc1Cl [MLS-0319671.0001] | 10 µM
Cc1ccc(-n2cccc2/C=C2/C(=N)N3C(=NC2=O)SN=C3S(C)(=O)=O)cc1Cl [MLS000583163] | 4.6 µM
CC(C)S(=O)(=O)C1=NSC2=NC(=O)/C(=C\c3ccc(-c4cccc(C(=O)O)c4)o3)C(=N)N21 [3-[5-[(Z)-(5-imino-7-oxo-3-propan-2-ylsulfonyl-[1,2,4]thiadiazolo[4,5-a]pyrimidin-6-ylidene)methyl]furan-2-yl]benzoic acid] | 68 µM
O=C1NC(=S)N(C2CCCCC2)C(=O)C1=CNNC(=O)c1ccccc1O [N'-[(E)-(1-cyclohexyl-4,6-dioxo-2-sulfanylidene-1,3-diazinan-5-ylidene)methyl]-2-hydroxybenzohydrazide] | 11.5 µM
Cc1cc(C)cc(-n2cccc2/C=C2/C(=N)N3C(=NC2=O)SN=C3S(C)(=O)=O)c1 [(6Z)-5-azanylidene-6-[[1-(3,5-dimethylphenyl)pyrrol-2-yl]methylidene]-3-methylsulfonyl-[1,2,4]thiadiazolo[4,5-a]pyrimidin-7-one] | 4.7 µM
COc1cc(CN=Nc2ccc(Cl)c(C(=O)O)c2)ccc1OC(=O)c1ccccc1F [SMR000589905] | 68 µM
O=C1Nc2ccc([N+](=O)[O-])cc2C1=NNc1ccccc1C(=O)O [2-[2-(5-nitro-2-oxidanylidene-indol-3-yl)hydrazinyl]benzoic acid] | > 100 µM
CC1(C)CC(=O)C2=C(C1)c1c(ccc3ccccc13)NC2c1cc([N+](=O)[O-])cc([N+](=O)[O-])c1O (centres undefined) [MLS000716265] | 2.4 µM

Structure (SMILES) | IC50
N#C/C(=C\C1C=CC(=O)C([N+](=O)[O-])=C1)c1nc2ccccc2s1 (centres undefined) | 4.65 µM
O=C(O)CCCN1C(=O)/C(=C/c2ccc(-c3nc4ccccc4s3)o2)SC1=S [4-[(5Z)-5-[[5-(1,3-benzothiazol-2-yl)furan-2-yl]methylidene]-4-oxo-2-sulfanylidene-1,3-thiazolidin-3-yl]butanoic acid] | 1 µM
COc1ccccc1NS(=O)(=O)c1cccc(-n2c(O)c(C=Nc3ccccc3C(=O)O)c3ccccc3c2=O)c1 [MLS000776209] | 2.3 µM
CCS(=O)(=O)C1=NSC2=NC(=O)/C(=C\c3ccc(OS(=O)(=O)c4ccccc4)cc3)C(=N)N21 [MLS-0362442.0001] | 8.4 µM
O=C1NC(=S)N(c2ccc(F)cc2)C(=O)C1=Cc1ccco1 [(5E)-1-(4-fluorophenyl)-5-(2-furanylmethylidene)-2-sulfanylidene-1,3-diazinane-4,6-dione] | 20 µM
O=[N+]([O-])c1cc([N+](=O)[O-])c2oc(-c3ccccc3)c(Br)c2c1O [3-bromanyl-5,7-dinitro-2-phenyl-1-benzofuran-4-ol] | 2.5 µM
COc1ccc(OC)c(N2C(=O)C(=Cc3ccco3)C(=O)NC2=S)c1 [MLS001197216] | 15 µM
CC(C)S(=O)(=O)C1=NSC2=NC(=O)/C(=C\c3ccc(-c4ccccc4)o3)C(=N)N21 [(6Z)-5-imino-6-[(5-phenyl-2-furanyl)methylidene]-3-propan-2-ylsulfonyl-[1,2,4]thiadiazolo[4,5-a]pyrimidin-7-one] | 3.2 µM
COc1cc(/C=N/NS(=O)(=O)c2ccc3ccccc3c2)ccc1OCc1ccc(C(=O)O)cc1 [MLS-0298745.0001] | 31 µM
O=C(O)c1ccccc1C(=O)N(Cc1cccc(Oc2ccc(Cl)cc2)c1)[C@H]1CCCc2ccccc21 [2-[[[3-(4-chlorophenoxy)phenyl]methyl-[(1S)-1,2,3,4-tetrahydronaphthalen-1-yl]amino]-oxomethyl]benzoic acid] | 4.1 µM
COC(=O)c1sc(-c2ccc(C(C)(C)C)cc2)cc1NC(=O)c1ccccc1C(=O)O [SMR000456098] | 1.5 µM
O=C1NC(=S)N(c2ccc(F)cc2)C(=O)C1=Cc1ccoc1 [SMR000270574] | 11.3 µM
Cc1ccc(-n2c(O)c(C=Nc3ccccc3-c3n[nH]c(=S)[nH]c3=O)c3ccccc3c2=O)c(C)c1 [SMR000370443] | 9.8 µM
CCOC(=O)C1=C(C)N=c2sc(=Cc3ccc(OCC(=O)O)cc3)c(=O)n2C1c1ccc(OC(C)C)cc1 (centres undefined) [2-[4-[[6-ethoxycarbonyl-7-methyl-3-oxo-5-(4-propan-2-yloxyphenyl)-5H-[1,3]thiazolo[3,2-a]pyrimidin-2-ylidene]methyl]phenoxy]acetic acid] | 4.45 µM
CSc1nnc(-c2ccccc2N=Cc2c(C)[nH]n(-c3ccc4ccccc4c3)c2=O)c(=O)[nH]1 [MLS000540062] | 16.5 µM
CCOC(=O)c1sc(N2C(=O)C(=O)C(C(=O)c3ccc(C)o3)C2c2cccc([N+](=O)[O-])c2)nc1C (centres undefined) [ethyl 4-methyl-2-[3-(5-methylfuran-2-yl)carbonyl-2-(3-nitrophenyl)-4-oxidanyl-5-oxidanylidene-2H-pyrrol-1-yl]-1,3-thiazole-5-carboxylate] | 5.1 µM
N#C/C(=C\c1ccc(OCc2ccc(Cl)cc2)cc1)C(=O)Nc1cccc(C(=O)O)c1 [MLS-0334991.0001] | > 100 µM
CCC(Sc1nc2ccsc2c(=O)n1Cc1ccc(C(=O)O)cc1)C(=O)Nc1ccc(C)c(Cl)c1 (centres undefined) | 13.2 µM
Cc1c2c(=O)n(-c3nc4ccccc4s3)[nH]c2cc(=O)n1Cc1ccccc1 [MLS000762993] | 6.58 µM

Source: BindingDB's records for doi:10.7270/Q20G3HMV (Burnham Center For Chemical Genomics, 2010)
